The supplement of paper PMC10307832

Legend:
Test in all cases: relative viability (nuclei count vs DMSO), 5 days (fraction); higher = more cells survive
[1] = compound: CC1(C)CNc2cc(NC(=O)c3cccnc3NCc3ccncc3)ccc21 [Motesanib] + N=C(N)NC(=N)NCCc1ccccc1 [Phenformin] (partner 250 µM)
How it was run: (§1)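 After 5 days of treatment, lung cancer cells in 1536-well plates were fixed and stained in a single step (final 0.05% Triton X-100, 1% formaldehyde, 1 ug/ml Hoechst) and their nuclei counted on 4× images. Treatment had been applied by pin tool the day after seeding as one drug alone or as a fixed anchor-drug dose with five library-drug doses (not always all listed) in √10 steps. Relative viability is the nuclei count of treated wells divided by that of vehicle wells, and values are medians of duplicate plates.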

[2] = compound: CC1(C)CNc2cc(NC(=O)c3cccnc3NCc3ccncc3)ccc21 [Motesanib] + CC(=O)Nc1cccc(-n2c(=O)n(C3CC3)c(=O)c3c(Nc4ccc(I)cc4F)n(C)c(=O)c(C)c32)c1 [Trametinib] (partner 0.02 µM)
How it was run: as §1

[3] = compound: C[C@@]1(C(=O)Nc2ccc(F)nc2)CCCN1c1nc(Nc2cc(C3CC3)n[nH]2)c2cccn2n1 + CC1(C)CCC(c2ccc(Cl)cc2)=C(CN2CCN(c3ccc(C(=O)NS(=O)(=O)c4ccc(N[C@H](CCN5CCOCC5)CSc5ccccc5)c(S(=O)(=O)C(F)(F)F)c4)cc3)CC2)C1 [Navitoclax] (partner 0.5 µM)
How it was run: as §1

[4] = compound: CC1(C)CNc2cc(NC(=O)c3cccnc3NCc3ccncc3)ccc21 [Motesanib] + Nc1ncn([C@H]2C[C@H](O)[C@@H](CO)O2)c(=O)n1 [Decitabine] (partner 2 µM)
How it was run: as §1

Cell Line | relative viability ([1]; first compound 0.01 µM) | relative viability ([1]; first compound 0.03162 µM) | relative viability ([1]; first compound 0.1 µM) | relative viability ([1]; first compound 0.3162 µM) | relative viability ([1]; first compound 1 µM) | relative viability ([2]; first compound 0.01 µM) | relative viability ([2]; first compound 0.03162 µM) | relative viability ([2]; first compound 0.1 µM) | relative viability ([2]; first compound 0.3162 µM) | relative viability ([2]; first compound 1 µM) | relative viability ([3]; first compound 0.04 µM) | relative viability ([3]; first compound 0.1265 µM) | relative viability ([3]; first compound 0.4 µM) | relative viability ([3]; first compound 1.265 µM) | relative viability ([4]; first compound 0.01 µM) | relative viability ([4]; first compound 0.03162 µM) | relative viability ([4]; first compound 0.1 µM) | relative viability ([4]; first compound 0.3162 µM) | relative viability ([4]; first compound 1 µM)
CAL-12T | 0.562 | 0.487 | 0.61 | 0.627 | 0.534 | 0.324 | 0.316 | 0.33 | 0.402 | 0.419 | 1.18 | 1.16 | 1.14 | 1.06 |  |  |  |  | 
RERF-LC-KJ | 0.462 | 0.389 | 0.407 | 0.373 | 0.467 | 0.88 | 0.875 | 0.805 | 0.845 | 0.909 | 0.842 | 0.579 | 0.846 | 0.592 | 0.652 | 0.752 | 0.719 | 0.67 | 0.665
NCI-H1650 | 0.489 | 0.304 | 0.394 | 0.417 | 0.403 | 0.684 | 0.531 | 0.636 | 0.547 | 0.623 | 0.955 | 1.14 | 0.955 | 1.08 | 0.53 | 0.352 | 0.445 | 0.546 | 0.564
BEN | 0.257 | 0.259 | 0.229 | 0.253 | 0.272 | 0.996 | 1.01 | 0.983 | 1.01 | 1.1 | 0.0599 | 0.0547 | 0.0804 | 0.0539 | 0.599 | 0.788 | 0.779 | 0.693 | 0.867
EMC-BAC-2 | 0.527 | 0.507 | 0.581 | 0.56 | 0.539 | 0.756 | 0.909 | 0.861 | 0.797 | 0.948 | 1.13 | 1.12 | 0.947 | 1.22 | 0.956 | 0.979 | 1.01 | 0.984 | 1.04
LU99A | 0.737 | 0.886 | 0.819 | 0.952 | 0.894 | 0.302 | 0.596 | 0.548 | 0.539 | 0.583 | 0.652 | 0.71 | 0.491 | 0.574 | 0.752 | 0.916 | 0.876 | 0.847 | 1.01
ABC-1 | 0.238 | 0.229 | 0.223 | 0.229 | 0.242 |  |  |  |  |  |  |  |  |  | 0.825 | 1.03 | 1.02 | 0.931 | 1.26
